From ChEMBL document CHEMBL3588760, “Inhibitors of melanogenesis in B16 melanoma 4A5 cells from flower buds of Lawsonia inermis (Henna)” (Bioorg Med Chem Lett, 2015)

How the values were obtained:
[1] = Downregulation of tyrosinase mRNA expression in theophylline-stimulated mouse B16-4A5 cells assessed as ratio of tyrosinase mRNA to beta-actin mRNA level at 3 uM after 72 hrs by qPCR analysis; assay type: functional, cell-based
[2] = Downregulation of tyrosinase mRNA expression in theophylline-stimulated mouse B16-4A5 cells assessed as ratio of tyrosinase mRNA to beta-actin mRNA level at 10 uM after 72 hrs by qPCR analysis; assay type: functional, cell-based
[3] = Downregulation of tyrosinase mRNA expression in theophylline-stimulated mouse B16-4A5 cells assessed as ratio of tyrosinase mRNA to beta-actin mRNA level at 30 uM after 72 hrs by qPCR analysis; assay type: functional, cell-based
[4] = Downregulation of TRP-1 mRNA expression in theophylline-stimulated mouse B16-4A5 cells assessed as ratio of TRP-1 mRNA to beta-actin mRNA level at 3 uM after 72 hrs by qPCR analysis; assay type: functional, cell-based
[5] = Downregulation of TRP-1 mRNA expression in theophylline-stimulated mouse B16-4A5 cells assessed as ratio of TRP-1 mRNA to beta-actin mRNA level at 10 uM after 72 hrs by qPCR analysis; assay type: functional, cell-based
[6] = Downregulation of TRP-1 mRNA expression in theophylline-stimulated mouse B16-4A5 cells assessed as ratio of TRP-1 mRNA to beta-actin mRNA level at 30 uM after 72 hrs by qPCR analysis; assay type: functional, cell-based
[7] = Downregulation of TRP-2 mRNA expression in theophylline-stimulated mouse B16-4A5 cells assessed as ratio of TRP-2 mRNA to beta-actin mRNA level at 3 uM after 72 hrs by qPCR analysis; assay type: functional, cell-based
[8] = Downregulation of TRP-2 mRNA expression in theophylline-stimulated mouse B16-4A5 cells assessed as ratio of TRP-2 mRNA to beta-actin mRNA level at 10 uM after 72 hrs by qPCR analysis; assay type: functional, cell-based
[9] = Downregulation of TRP-2 mRNA expression in theophylline-stimulated mouse B16-4A5 cells assessed as ratio of TRP-2 mRNA to beta-actin mRNA level at 30 uM after 72 hrs by qPCR analysis; assay type: functional, cell-based
[10] = biological target: Plasminogen (Homo sapiens) (UniProt P00747); assay: Inhibition of plasmin (unknown origin) at 100 uM after 18 hrs by arianor mahogany dye-based fibrin plate assay relative to control
Sequence of Plasminogen (Homo sapiens) (P00747 97-580 limits assumed): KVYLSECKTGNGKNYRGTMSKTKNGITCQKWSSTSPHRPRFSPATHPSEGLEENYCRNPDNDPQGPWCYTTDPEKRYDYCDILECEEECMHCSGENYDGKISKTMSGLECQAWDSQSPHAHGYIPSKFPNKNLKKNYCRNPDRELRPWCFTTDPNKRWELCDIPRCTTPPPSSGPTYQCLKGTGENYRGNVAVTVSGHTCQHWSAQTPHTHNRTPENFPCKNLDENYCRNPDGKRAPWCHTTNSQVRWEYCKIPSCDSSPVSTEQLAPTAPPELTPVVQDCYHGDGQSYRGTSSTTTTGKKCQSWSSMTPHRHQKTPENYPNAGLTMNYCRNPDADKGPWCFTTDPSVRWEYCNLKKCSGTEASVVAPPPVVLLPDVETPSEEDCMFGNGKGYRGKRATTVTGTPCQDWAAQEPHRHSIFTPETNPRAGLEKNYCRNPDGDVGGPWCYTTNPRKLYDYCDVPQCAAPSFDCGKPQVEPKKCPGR
Sequence of Plasminogen (Homo sapiens) (P00747 581-810 limits assumed): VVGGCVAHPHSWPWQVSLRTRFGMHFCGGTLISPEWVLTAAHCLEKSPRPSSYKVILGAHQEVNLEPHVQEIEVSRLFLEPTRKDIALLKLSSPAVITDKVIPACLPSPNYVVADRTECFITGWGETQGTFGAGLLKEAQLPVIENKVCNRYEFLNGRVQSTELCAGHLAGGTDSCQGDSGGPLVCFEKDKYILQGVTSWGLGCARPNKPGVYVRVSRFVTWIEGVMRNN

[11] = Inhibition of melanogenesis in theophylline-stimulated mouse B16-4A5 cells at 1 uM after 72 hrs by microplate reader analysis relative to control; assay type: functional; conditions: B16-4A5, 72 h
[12] = Inhibition of melanogenesis in theophylline-stimulated mouse B16-4A5 cells at 3 uM after 72 hrs by microplate reader analysis relative to control; assay type: functional; conditions: B16-4A5, 72 h
[13] = Inhibition of melanogenesis in theophylline-stimulated mouse B16-4A5 cells at 10 uM after 72 hrs by microplate reader analysis relative to control; assay type: functional; conditions: B16-4A5, 72 h
[14] = Inhibition of melanogenesis in theophylline-stimulated mouse B16-4A5 cells at 30 uM after 72 hrs by microplate reader analysis relative to control; assay type: functional; conditions: B16-4A5, 72 h
[15] = Cytotoxicity against mouse B16-4A5 cells assessed as cell viability at 1 uM after 70 hrs by WST-8 assay relative to control; assay type: cell-based; conditions: read-out: Activity
[16] = Cytotoxicity against mouse B16-4A5 cells assessed as cell viability at 3 uM after 70 hrs by WST-8 assay relative to control; assay type: cell-based; conditions: read-out: Activity
[17] = Cytotoxicity against mouse B16-4A5 cells assessed as cell viability at 10 uM after 70 hrs by WST-8 assay relative to control; assay type: cell-based; conditions: read-out: Activity
[18] = Cytotoxicity against mouse B16-4A5 cells assessed as cell viability at 30 uM after 70 hrs by WST-8 assay relative to control; assay type: cell-based; conditions: read-out: Activity
[19] = Cytotoxicity against mouse B16-4A5 cells assessed as cell viability at 100 uM after 70 hrs by WST-8 assay relative to control; assay type: cell-based; conditions: read-out: Activity
[20] = Inhibition of melanogenesis in theophylline-stimulated mouse B16-4A5 cells at 100 uM after 72 hrs by microplate reader analysis relative to control; assay type: functional; conditions: B16-4A5, 72 h
[21] = biological target: T1, Tyrosinase (Agaricus bisporus) (UniProt O42713); assay: Inhibition of mushroom tyrosinase using L-DOPA as substrate assessed as dopaquinone production at 100 uM after 5 mins by microplate reader analysis relative to control
T1 sequence (whole entry): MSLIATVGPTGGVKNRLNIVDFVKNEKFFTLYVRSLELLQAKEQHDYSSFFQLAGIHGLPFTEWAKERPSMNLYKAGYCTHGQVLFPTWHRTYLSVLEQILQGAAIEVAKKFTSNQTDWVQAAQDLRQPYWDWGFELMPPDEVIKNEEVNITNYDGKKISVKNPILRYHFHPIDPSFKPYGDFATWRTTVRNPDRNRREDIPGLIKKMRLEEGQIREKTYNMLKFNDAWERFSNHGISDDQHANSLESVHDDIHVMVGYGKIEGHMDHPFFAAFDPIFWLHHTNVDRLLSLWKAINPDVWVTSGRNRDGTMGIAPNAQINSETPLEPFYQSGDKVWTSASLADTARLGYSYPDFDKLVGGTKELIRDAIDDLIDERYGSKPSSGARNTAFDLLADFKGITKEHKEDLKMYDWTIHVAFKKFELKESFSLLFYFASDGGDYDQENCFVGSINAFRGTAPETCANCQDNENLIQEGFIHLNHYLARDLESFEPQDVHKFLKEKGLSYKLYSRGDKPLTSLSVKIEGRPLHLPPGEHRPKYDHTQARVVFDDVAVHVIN

| SMILES | Ratio [1] | Ratio [2] | Ratio [3] | Ratio [4] | Ratio [5] | Ratio [6] | Ratio [7] | Ratio [8] | inhibition [10] | inhibition at 1 µM [11] | inhibition at 3 µM [12] | inhibition at 10 µM [13] | inhibition at 30 µM [14] | viability at 70 h, 1 µM [15] | viability at 70 h, 3 µM [16] | viability at 70 h, 10 µM [17] | viability at 70 h, 30 µM [18] | viability at 70 h, 100 µM [19] | inhibition at 100 µM [20] | inhibition [21] | further results |
| --- | --- | --- | --- | --- | --- | --- | --- | --- | --- | --- | --- | --- | --- | --- | --- | --- | --- | --- | --- | --- | --- |
| O=c1c(O)c(-c2ccc(O)c(O)c2)oc2cc(O)cc(O)c12 [QUERCETIN] | 0.56 | 0.55 | 0.45 | 0.68 | 0.68 | 0.7 | 0.81 | 0.72 | 30.2% | 13.9% | 17.1% | 34.3% | 72.5% | 104% | 103% | 106% | 89.1% |  |  |  | Ratio [9]: 0.59 |
| COc1ccc(-c2oc3cc(O)cc(O)c3c(=O)c2O[C@@H]2O[C@H](CO)[C@@H](O)[C@H](O)[C@H]2O)cc1O |  |  |  |  |  |  |  |  | 33.1% | 7.7% | 3.3% | -10.7% |  | 93.4% | 91.3% | 86.2% |  |  |  |  |  |
| COc1ccc(-c2cc(=O)c3c(O)cc(O)cc3o2)cc1O[C@@H]1O[C@H](CO)[C@@H](O)[C@H](O)[C@H]1O | 1.22 | 0.99 | 1.09 | 0.85 | 1.08 | 0.77 | 1.08 | 0.92 | 28.5% | 6.3% | 18% | 40.6% | 44.1% | 92.8% | 91.4% | 94.5% | 79.4% | 66.2% | 61.5% |  | Ratio [9]: 0.93 |
| O=c1cc(-c2ccc(O)c(O)c2)oc2cc(O[C@@H]3O[C@H](CO)[C@@H](O)[C@H](O)[C@H]3O)cc(O)c12 [GALUTEOLIN] |  |  |  |  |  |  |  |  | 61% | 14.8% | 14% | 45.1% | 11% | 101% | 104% | 103% | 85.5% | 57.6% | 15.1% |  |  |
| NC[C@H]1CC[C@H](C(=O)O)CC1 |  |  |  |  |  |  |  |  | 9.5% |  |  |  |  |  |  |  |  |  |  |  |  |
| O=c1cc(-c2ccc(O[C@@H]3O[C@H](CO)[C@@H](O)[C@H](O)[C@H]3O)c(O)c2)oc2cc(O)cc(O)c12 |  |  |  |  |  |  |  |  | 41.7% | 27.7% | 31% | 38.6% |  | 99.6% | 105% | 114% |  |  |  | 4.4% |  |
| COc1ccc(-c2cc(=O)c3c(O)cc(O[C@@H]4O[C@H](CO)[C@@H](O)[C@H](O)[C@H]4O)cc3o2)cc1 [TILIANINE] |  |  |  |  |  |  |  |  | -8.1% | -5.9% | -1.1% | -36.6% |  | 93.2% | 98.3% | 74.2% |  |  |  | 5.3% |  |
| O=C1CC(c2ccc(O)c(O)c2)Oc2cc(O)cc(O)c21 (racemic) | 0.97 | 0.66 | 0.38 | 0.94 | 0.36 | 0.29 | 0.67 | 0.55 | 20.7% | 5.8% | 10.3% | 37.2% | 42.5% | 108% | 101% | 88.2% | 72.6% | 55.9% | 61.1% | 3.1% | Ratio [9]: 0.43 |
| O=c1c(O[C@@H]2O[C@H](CO)[C@@H](O)[C@H](O)[C@H]2O)c(-c2ccc(O)c(O)c2)oc2cc(O)cc(O)c12 [ISOQUERCETIN] |  |  |  |  |  |  |  |  | -2.5% | 16.7% | 33.2% | 20.7% | 23.2% | 99.8% | 100% | 95.4% | 87% | 76.3% | 20.7% | 5% |  |
| O=c1c(O)c(-c2ccc(O[C@@H]3O[C@H](CO)[C@@H](O)[C@H](O)[C@H]3O)c(O)c2)oc2cc(O)cc(O)c12 [SPIRAEOSIDE] |  |  |  |  |  |  |  |  | 51% | 22.4% | 24.4% | 31.4% | 34.7% | 105% | 107% | 106% | 95.8% | 74% | 21.4% | 70.7% |  |
| O=c1cc(-c2ccc(O)c(O)c2)oc2cc(O)cc(O)c12 [LUTEOLIN] | 0.72 | 0.74 | 0.46 | 0.93 | 0.86 | 0.83 | 0.9 | 0.89 | 28.7% | 6.2% | 13.5% | 38.1% | 76.7% | 103% | 102% | 77.2% | 63.8% | 12.6% |  | 33.5% | Ratio [9]: 0.82 |
